This is an account of results in PubChem BioAssay AID2060626 (Molecular Pharmacology Branch, DTP, NCI, 2025).

One may read the IC50 as the concentration that inhibits the measured activity by half. As a reminder, the viability, T/C is the result in the treated group divided by that in the control group, in per cent.

Where “and” joins values, the source holds several entries; their conditions need not be identical. Equal entries are not always repeated.

The experiment deals with 168753-222-R-J1-PDC complex spheroid viability. As to the kind of experiment: Anticancer human tumor 168753-222-R-J1-PDC patient-derived bladder carcinoma cell line growth inhibition [CLK]. The note with it: for viability, T/C: stronger effect = lower value. The procedure, abridged: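 Patient-derived tumor cells grown as complex spheroids with HUVEC endothelial cells and mesenchymal stem cells, treated with drug combinations. Concentrations descend in half-log steps from near clinical Cmax, or from 10 microM if Cmax unknown.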

Setting [1] is: curve of first compound, second compound 0.0316 µM.
[2] abbreviates: curve of first compound, second compound 0.1 µM.
The mark [3] stands for this setting: curve of first compound, second compound 0.316 µM.
The mark [4] stands for this setting: curve of first compound, second compound 1 µM.
Setting [5] is: curve of first compound, second compound 3.16 µM.
Setting [6] is: curve of first compound, second compound 10 µM.
[7] abbreviates: second compound 0.0316 µM, first compound 0.00316 µM.
[8] abbreviates: second compound 0.0316 µM, first compound 0.01 µM.
Setting [9] is: second compound 0.0316 µM, first compound 0.0316 µM.
Setting [10] is: second compound 0.0316 µM, first compound 0.1 µM.
Where [11] appears, read: second compound 0.1 µM, first compound 0.00316 µM.
Where [12] appears, read: second compound 0.1 µM, first compound 0.01 µM.
Setting [13] is: second compound 0.1 µM, first compound 0.0316 µM.
Setting [14] is: second compound 0.1 µM, first compound 0.1 µM.
Setting [15] is: second compound 0.316 µM, first compound 0.00316 µM.
[16] abbreviates: second compound 0.316 µM, first compound 0.01 µM.
The mark [17] stands for this setting: second compound 0.316 µM, first compound 0.0316 µM.
[18] abbreviates: second compound 0.316 µM, first compound 0.1 µM.
Where [19] appears, read: second compound 1 µM, first compound 0.00316 µM.
Setting [20] is: second compound 1 µM, first compound 0.01 µM.
Setting [21] is: second compound 1 µM, first compound 0.0316 µM.
The mark [22] stands for this setting: second compound 1 µM, first compound 0.1 µM.
The mark [23] stands for this setting: second compound 3.16 µM, first compound 0.00316 µM.
[24] abbreviates: second compound 3.16 µM, first compound 0.01 µM.
Setting [25] is: second compound 3.16 µM, first compound 0.0316 µM.
[26] abbreviates: second compound 3.16 µM, first compound 0.1 µM.
[27] abbreviates: second compound 10 µM, first compound 0.00316 µM.
The mark [28] stands for this setting: second compound 10 µM, first compound 0.01 µM.
The mark [29] stands for this setting: second compound 10 µM, first compound 0.0316 µM.
Setting [30] is: second compound 10 µM, first compound 0.1 µM.
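Further: viability measured after seven days of drug exposure.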
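Wherever viability, T/C is given: luminescence signal used as surrogate for viable cell amount; 100% = DMSO vehicle control wells.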

Regarding `CCc1c2c(nc3ccc(O)cc13)-c1cc3c(c(=O)n1C2)COC(=O)[C@]3(O)CC` + CN1CCN(c2cc(C(=O)Nc3cc4cc(-c5cnn(C)c5)ccc4cn3)ccn2)CC1, the IC50 under setting [1] amounted to 16.9 nM; the IC50 under setting [2] was under 3.16 nM; the IC50 under setting [3] is under 3.16 nM; the concentration for half-maximal inhibition (IC50) under setting [4] is under 3.16 nM; the IC50 under setting [5] was under 3.16 nM; the IC50 under setting [6] is under 3.16 nM. Besides, the viability, T/C by setting is: under setting [7], 77.7%; under setting [8], 65.3%; under setting [9], 29.3%; under setting [10], 30.1%; (second compound 0.0316 µM, first compound 0.316 µM) 13.1%; (second compound 0.0316 µM, first compound 1 µM) 8.39%. Besides, the viability, T/C runs as follows: under setting [11], 32.6%; under setting [12], 36.1%; under setting [13], 20.5%; under setting [14], 12.4%; (second compound 0.1 µM, first compound 0.316 µM) 8.78%; (second compound 0.1 µM, first compound 1 µM) 6.92%. The viability, T/C is 9.06% under setting [15]; 8.44% under setting [16]; 7.99% under setting [17]; 9.04% under setting [18]; 2.19% (second compound 0.316 µM, first compound 0.316 µM); 0.99% (second compound 0.316 µM, first compound 1 µM). Also, the viability, T/C was 0.14% under setting [19]; 0.16% under setting [20]; 0.1% under setting [21]; 0.08% under setting [22]; 0.24% (second compound 1 µM, first compound 0.316 µM); 1.02% (second compound 1 µM, first compound 1 µM). The viability, T/C runs as follows: under setting [23], 0.15%; under setting [24], 0.15%; under setting [25], 0.25%; under setting [26], 0.08%; (second compound 3.16 µM, first compound 0.316 µM) 0.11%; (second compound 3.16 µM, first compound 1 µM) 0.31%. In addition, the viability, T/C runs as follows: under setting [27], 0.66%; under setting [28], 0.14%; under setting [29], 0.19%; under setting [30], 0.14%; (second compound 10 µM, first compound 0.316 µM) 0.18%; (second compound 10 µM, first compound 1 µM) 0.45%.

In the case of `CC1(C)CCC(CN2CCN(c3ccc(C(=O)NS(=O)(=O)c4ccc(NCC5CCOCC5)c([N+](=O)[O-])c4)c(Oc4cnc5[nH]ccc5c4)c3)CC2)=C(c2ccc(Cl)cc2)C1`, the viability, T/C (compound 0.0316 µM) was 87% and 96.7%; the viability, T/C (compound 0.1 µM) was 97% and 94.3%; the viability, T/C (compound 0.316 µM) is 74% and 113%; the viability, T/C (compound 1 µM) was 112% and 102%; the viability, T/C (compound 3.16 µM) is 54.4% and 93.3%; the viability, T/C (compound 10 µM) was 10.7% and 22%. Where the note is “curve of compound”, the IC50 was 3550 nM and 6370 nM.

Regarding `CNC(=O)c1ccc(Nc2nc(OC3CCCC3)c3c(-c4ccc5nc(C)oc5c4)c[nH]c3n2)c(OC)c1`, the viability, T/C reads like this: (compound 0.0316 µM) 101% [middle of 12 runs]; (compound 0.1 µM) 99.3% [middle of 12 runs]; (compound 1 µM) 45.1% [middle of 12 runs]; (compound 3.16 µM) 33.5% [middle of 12 runs]; (compound 10 µM) 23.6% [middle of 12 runs]. For the setting “compound alone, run of 08/01/2023”, the IC50 was 900 nM [middle of 12 runs].

As for `Cn1ncnc1[C@H]1c2n[nH]c(=O)c3cc(F)cc(c23)N[C@@H]1c1ccc(F)cc1` + CNC(=O)c1ccc(Nc2nc(OC3CCCC3)c3c(-c4ccc5nc(C)oc5c4)c[nH]c3n2)c(OC)c1, the half-maximal inhibitory concentration (IC50) under setting [1] was over 100 nM; the IC50 under setting [2] was over 100 nM; the IC50 under setting [3] was over 100 nM; the IC50 under setting [4] was under 0.316 nM; the IC50 under setting [5] is under 0.316 nM; the IC50 under setting [6] is under 0.316 nM. The viability, T/C runs as follows: (second compound 0.0316 µM, first compound 0.000316 µM) 95%; (second compound 0.0316 µM, first compound 0.001 µM) 116%; under setting [7], 110%; under setting [8], 113%; under setting [9], 104%; under setting [10], 108%. Moreover, the viability, T/C is, setting by setting: (second compound 0.1 µM, first compound 0.000316 µM) 96.8%; (second compound 0.1 µM, first compound 0.001 µM) 93.6%; under setting [11], 91.7%; under setting [12], 103%; under setting [13], 103%; under setting [14], 92.6%. Also, the viability, T/C was 66.3% (second compound 0.316 µM, first compound 0.000316 µM); 72% (second compound 0.316 µM, first compound 0.001 µM); 77.2% under setting [15]; 85.2% under setting [16]; 82.1% under setting [17]; 77.2% under setting [18]. For the same compound, the viability, T/C runs as follows: (second compound 1 µM, first compound 0.000316 µM) 33.9%; (second compound 1 µM, first compound 0.001 µM) 32%; under setting [19], 30.6%; under setting [20], 28%; under setting [21], 31.9%; under setting [22], 42%. Further, the viability, T/C is 22.6% (second compound 3.16 µM, first compound 0.000316 µM); 18.6% (second compound 3.16 µM, first compound 0.001 µM); 19.6% under setting [23]; 18.7% under setting [24]; 19.8% under setting [25]; 21.5% under setting [26]. The viability, T/C by setting is: (second compound 10 µM, first compound 0.000316 µM) 15.8%; (second compound 10 µM, first compound 0.001 µM) 17.3%; under setting [27], 19.3%; under setting [28], 16.8%; under setting [29], 16.3%; under setting [30], 20.5%.

Consider `CCCS(=O)(=O)Nc1ccc(F)c(C(=O)c2c[nH]c3ncc(-c4ccc(Cl)cc4)cc23)c1F`, for which the viability, T/C (compound 0.0316 µM) was 91.7% and 104%; the viability, T/C (compound 0.1 µM) was 108% and 107%; the viability, T/C (compound 0.316 µM) was 103% and 113%; the viability, T/C (compound 1 µM) was 132% and 115%; the viability, T/C (compound 3.16 µM) was 120% and 118%; the viability, T/C (compound 10 µM) is 71.7% and 76.3%. Where the note is “curve of compound”, the IC50 is over 10000 nM.
